Measured values: patent US11519901B2, “Method for screening for cancer therapeutic agent” (THE UNIVERSITY OF TOKYO, priority 2015, dated 2022)
Read-outs that look alike come from different tables or passages of the source.

Experiments:
[1] = test system: HER2-amplified breast cancer cell line SK-BR3; test: PODXL expression by RT-PCR in SK-BR3 introduced with reprogramming factor (4F); assay type: cell-based, human; settings: 4F-introduced SK-BR3, treated with IC50 concentration of drug
Protocol: (§1) In FIG. 2, FIG. 2A is a schematic drawing describing a method of introducing reprogramming factor, MYOD1 or GFP and siRNA into MP-CCS-SY cell line. […] FIG. 2C is a schematic drawing describing introduction of a reprogramming factor into HCC827 or SK-BR3 cell line and a method of addition of each medicament.
(§2) RT-PCR was performed using the following method. Using RNeasy Plus Mini kit (Qiagen, Hilden, Germany), the total RNA was isolated. Using Go-taq qPCR Master Mix (Promega, Madison, USA), quantitative real-time PCR analysis was performed. The transcription level was standardized based on β-actin or GAPDH value.
(§3) Besides the above, an influence of the activation of oncogene signal on cell reprogramming was examined. Epithelial growth factor receptor (EGFR) mutated lung cancer cell line HCC827 and HER2-amplified breast cancer cell line SK-BR3 were used for the experiment. These cancer cell lines are sensitive to EGFR specific tyrosine kinase and HER2 tyrosine kinase inhibitor, respectively. […] Change of gene expression with or without introduction of 4F into HCC827 and SK-BR3 was examined by microarray analysis.

[2] = test system: EGFR mutated lung cancer cell line HCC827; test: PODXL expression by RT-PCR in HCC827 introduced with reprogramming factor (4F); assay type: cell-based, human; settings: 4F-introduced HCC827, treated with IC50 concentration of drug
Protocol: as §1, §2, §3

HCC827 cell line = settings: HCC827, Dox(4F)+, two days
Protocol: as §2
(§4) Using a combination of a cancer cell sensitive to a certain kind of anticancer agent and a cancer cell not sensitive to a certain kind of anticancer agent, an influence of a drug-specific cell on the reprogramming was examined. […] Two days later, RNA was extracted from the cells, and the expression levels of NANOG and GDF3 were measured by quantitative RT-PCR (FIG. 5A).

[3] = test system: HER2-amplified breast cancer cell line SK-BR3; settings: stated as known; cited from earlier work
SK-BR3 cell line [4] = test: NANOG and GDF3 expression by quantitative RT-PCR in 4F-induced SK-BR3; assay type: cell-based, human; settings: SK-BR3, Dox(4F)+, two days
Protocol: as §2, §4

[5] = test system: EGFR mutation lung cancer cell line HCC827; settings: stated as known; cited from earlier work
SK-BR3 cell line [6] = test: Microarray analysis of gene expression change with or without 4F in SK-BR3; assay type: cell-based, human; settings: SK-BR3 with or without 4F introduction
Text: as §1, §3

[7] = Imatinib 1 or 10 μM, 5-FU 10 or 50 μM (FIG. 5B legend)

Compound | expression of reprogramming marker PODXL [1] | PODXL expression [2] | expression of GDF3 (HCC827 cell line; [7]) | expression of NANOG (HCC827 cell line; [7]) | sensitivity of cell line to drug [3] | expression of GDF3 (HCC827 cell line; 0.5 μM) | expression of NANOG (HCC827 cell line; 0.5 μM) | expression of GDF3 (SK-BR3 cell line [4]; 0.05 μM) | expression of NANOG (SK-BR3 cell line [4]; 0.05 μM) | expression of GDF3 (SK-BR3 cell line [4]; 0.5 μM) | expression of NANOG (SK-BR3 cell line [4]; 0.5 μM) | sensitivity of cell line to drug [5] | change of gene expression (many genes including PODXL and NANOG), microarray (SK-BR3 cell line [6])
O=c1[nH]cc(F)c(=O)[nH]1 [5FU, 5-fluorouracil] | did not increase | did not increase | did not promote | did not promote | – | – | – | – | – | – | – | – | –
CS(=O)(=O)CCNCc1ccc(-c2ccc3ncnc(Nc4ccc(OCc5cccc(F)c5)c(Cl)c4)c3c2)o1 [lapatinib] | promoted | – | – | – | sensitive | promoted | promoted | promoted | promoted | promoted | promoted | sensitive | upregulated or downregulated
